According to patent US9718790B2, “Triazine derivative and pharmaceutical composition having an analgesic activity comprising the same” (SHIONOGI & CO., LTD., priority 2010, dated 2017):
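Note: stimulus was 50 nM ATP with fluorescence followed for 3 min, and the response per well was peak post-ATP fluorescence divided by the reading at measurement start.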

What follows are molecules tested against human P2X3 receptor (Homo sapiens (Human), UniProt P56373) (assay: Evaluation of human P2X3 receptor inhibitory activity (Fluo-3 calcium fluorescence, FDSS 3000, ATP stimulation)). Details: C6BU-1 cells stably expressing human P2X3 receptor.
Sequence of human P2X3 receptor (P56373 whole entry): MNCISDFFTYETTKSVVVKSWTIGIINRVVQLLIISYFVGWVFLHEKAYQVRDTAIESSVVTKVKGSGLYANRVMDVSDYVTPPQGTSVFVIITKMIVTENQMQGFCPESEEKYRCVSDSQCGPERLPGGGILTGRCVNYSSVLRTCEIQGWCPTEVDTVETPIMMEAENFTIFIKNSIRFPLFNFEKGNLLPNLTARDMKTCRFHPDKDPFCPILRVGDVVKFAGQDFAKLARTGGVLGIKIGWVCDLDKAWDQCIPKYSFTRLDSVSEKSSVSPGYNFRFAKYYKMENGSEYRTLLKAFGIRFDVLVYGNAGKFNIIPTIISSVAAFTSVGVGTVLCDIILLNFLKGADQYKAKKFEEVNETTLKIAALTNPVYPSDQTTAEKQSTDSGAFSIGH
Assay type: cell-based
`COC(=O)CCCCn1c(=O)[nH]/c(=N\c2ccc(OC(C)C)c(Cl)c2)n(Cc2ccc(Cl)cc2)c1=O` [Compound I-2182] showed an IC50 of 3 nM. With `Cn1c(=O)[nH]/c(=N\c2ccc(Oc3ccnc(CO)c3)cc2)n(Cc2ccc(Cl)cc2)c1=O` [Compound I-2018] the IC50 was 22 nM. Molecule `COC(=O)CCCCn1c(=O)[nH]/c(=N\c2ccc3nc(C)sc3c2)n(Cc2ccc(C)cc2)c1=O` [Compound I-2155] has an IC50 of 4 nM. `Cn1c(=O)[nH]/c(=N\c2ccc(Oc3ccnc(C(=O)O)c3)cc2)n(Cc2ccc(Cl)cc2)c1=O` [Compound I-2099] gave an IC50 of 8 nM. `Cc1ccc(Cn2c(=O)n(C[C@H](C)C(=O)O)c(=O)[nH]/c2=N\c2ccc3nc(C)oc3c2)cc1` [Compound I-1279] showed an IC50 of 158 nM. In the case of `CNC(=O)[C@@H](C)Cn1c(=O)[nH]/c(=N\c2ccc(OC(C)C)c(C)c2)n(Cc2ccc(Cl)cc2)c1=O` [Compound I-0721], the IC50 is reported as 13 nM. Work on `CC(C)Oc1ccc(/N=c2\[nH]c(=O)n(Cc3cccn(C)c3=O)c(=O)n2Cc2ccc(Cl)cc2)cc1F` [Compound I-0689] yielded an IC50 of 5 nM. In the case of `CCn1c(=O)[nH]/c(=N\c2ccc(Oc3ccnc(C(=O)O)c3)cc2)n(CC2CCC(C)(C)CC2)c1=O` [Compound I-2208], the IC50 is reported as 12 nM. `CCn1c(=O)[nH]/c(=N\c2ccc(OCc3nnc(C)o3)cc2)n(Cc2ccc(Cl)cc2)c1=O` [Compound I-2199] was tested, and the IC50 was 515 nM. In the case of `Cc1ccc2cc(/N=c3\[nH]c(=O)n([C@@H](C)[C@@H](C)C(=O)O)c(=O)n3Cc3ccc(Cl)cc3)ccc2n1` [Compound I-1350], the IC50 is reported as 28 nM. `COc1cc(/N=c2\[nH]c(=O)n(CC(CO)CO)c(=O)n2Cc2ccc(Cl)cc2)ccc1OC(C)C` [Compound I-1985] was tested, and the IC50 was 11 nM. With `C[C@H](C(=O)O)[C@@H](C)n1c(=O)[nH]/c(=N\c2ccc(OC3CCC3)cc2)n(Cc2ccc(Cl)cc2)c1=O` [Compound I-1456] the IC50 was 14 nM. `CO/N=C(\Cn1c(=O)[nH]/c(=N\c2ccc(OC(C)C)c(F)c2)n(Cc2ccc(Cl)cc2)c1=O)C(=O)O` [Compound I-0737, 1-(4-chlorobenzyl)-6-(3-fluoro-4-isopropoxyphenylimino)-3-(2-hydroxycarbonyl-2-methoxyiminoethyl)-1,3,5-triazinane-2,4-dion] gave an IC50 of 140 nM. In the case of `CC1(C)OCC(Cn2c(=O)[nH]/c(=N\c3ccc(OC4CCC4)cc3)n(Cc3ccc(Cl)cc3)c2=O)CO1` [Compound I-1965], the IC50 is reported as 3 nM. In the case of `Cc1nc2ccc(/N=c3\[nH]c(=O)n(CCO)c(=O)n3CC3CCC(C)CC3)cc2s1` (centres unmarked) [Compound I-2098], the IC50 is reported as 4 nM. With `CC(C)NC(=O)c1ccc(/N=c2\[nH]c(=O)n(C[C@H](C)C(=O)O)c(=O)n2Cc2ccc(Cl)cc2)cc1Cl` [Compound I-1414] the IC50 was 986 nM. In the case of `COC(=O)[C@@H](C)Cn1c(=O)[nH]/c(=N\c2ccc3c(c2)CCO3)n(Cc2ccc(Cl)cc2)c1=O` [Compound I-0770], the IC50 is reported as 405 nM. Work on `Cc1nc2ccc(/N=c3\[nH]c(=O)n(C[C@H](C)C(=O)O)c(=O)n3Cc3ccc(Cl)cc3)cc2nc1C` [Compound I-1348] yielded an IC50 of 918 nM. `CCn1c(=O)[nH]/c(=N\c2ccc(Oc3ccc(C(=O)O)cc3)cc2)n(Cc2ccc(C)cc2)c1=O` [Compound I-2035] gave an IC50 of 22 nM.

Same assay, conditions: C6BU-1 cells stably expressing human P2X3 receptor, Fluo-3 fluorescence, FDSS 3000
With `CCc1cc(/N=c2\[nH]c(=O)n(C[C@H](C)C(=O)OC)c(=O)n2Cc2ccc(C)cc2)ccc1OC(C)C` [Compound I-0908, (S)-1-(4-methylbenzyl)-6-(3-ethyl-4-isopropoxyphenylimino)-3-(2-methoxycarbonylpropyl)-1,3,5-triazinane-2,4-dion] the IC50 was 13 nM. With `Cc1ccc(Cn2c(=O)n(CCCCC(=O)O)c(=O)[nH]/c2=N\c2ccc(OC(C)C)c(Cl)c2)cc1` [Compound I-1878] the IC50 was 10 nM. For `CC(=O)OCC(CO)CCn1c(=O)[nH]/c(=N\c2ccc3nc(C)sc3c2)n(Cc2ccc(Cl)cc2)c1=O` (centres unmarked) [Compound I-1851], the IC50 was 4 nM. `COc1ccc(Oc2ccc(/N=c3\[nH]c(=O)n(CC(CO)CO)c(=O)n3Cc3ccc(Cl)cc3)cc2)cn1` [Compound I-1843] showed an IC50 of 4 nM. With `CC(C)n1c2c(c3cc(/N=c4\[nH]c(=O)n([C@@H](C)[C@@H](C)C(=O)O)c(=O)n4Cc4ccc(Cl)cc4)ccc31)CCCC2` [Compound I-1770] the IC50 was 788 nM. Molecule `COC(=O)[C@@H](C)Cn1c(=O)[nH]/c(=N\c2ccc(OC(F)F)c(Cl)c2)n(Cc2ccc(C)cc2)c1=O` [Compound I-1022] has an IC50 of 14 nM. Molecule `CCN(c1ccc(/N=c2\[nH]c(=O)n(C[C@H](C)C(=O)O)c(=O)n2Cc2ccc(Cl)cc2)cc1)C(C)C` [Compound I-0963] has an IC50 of 662 nM. Molecule `Cc1ccc(Cn2c(=O)n(C[C@H](C)C(=O)O)c(=O)[nH]/c2=N\c2ccc(OC(C)C)c(OC(C)C)c2)cc1` [Compound I-1136] has an IC50 of 204 nM. `CCOC(=O)CCn1c(=O)[nH]/c(=N\c2cccc(S(F)(F)(F)(F)F)c2)n(Cc2ccc(Cl)cc2)c1=O` [Compound I-1646] was tested, and the IC50 was 43 nM. `Cc1ccc(Cn2c(=O)n(C[C@H](C)C(=O)O)c(=O)[nH]/c2=N\c2ccc(N3CCCCC3)cc2)cc1` [Compound I-1093] gave an IC50 of 38 nM. With `Cc1nc2ccc(/N=c3\[nH]c(=O)n(CC(=O)O)c(=O)n3Cc3ccc(Cl)cc3)cc2s1` [Compound I-1610] the IC50 was 251 nM. `CC(C)Oc1ccc(/N=c2\[nH]c(=O)n(CC(CO)(CO)C(=O)O)c(=O)n2Cc2ccc(Cl)cc2)cc1Cl` [Compound I-1012] gave an IC50 of 51 nM. `CCOC(=O)CCn1c(=O)[nH]/c(=N\c2ccc(O[C@H](C)C(F)(F)F)cc2)n(Cc2ccc(C)cc2)c1=O` [Compound I-1021] was tested, and the IC50 was 7 nM. Work on `CNC(=O)Cn1c(=O)[nH]/c(=N\c2ccc(Oc3ccc(OC)nc3)cc2)n(Cc2ccc(Cl)cc2)c1=O` [Compound I-1857] yielded an IC50 of 7 nM. `C=Cc1cc(/N=c2\[nH]c(=O)n(C[C@H](C)C(=O)O)c(=O)n2Cc2ccc(C)cc2)ccc1OC(C)C` [Compound I-0910, (S)-1-(4-methylbenzyl)-6-(3-vinyl-4-isopropoxyphenylimino)-3-(2-hydroxycarbonylpropyl)-1,3,5-triazinane-2,4-dion] gave an IC50 of 8 nM. Work on `C[C@@H](C(=O)O)[C@H](C)n1c(=O)[nH]/c(=N\c2ccc3c(c2)CCOC3)n(Cc2ccc(Cl)cc2)c1=O` [Compound I-1810] yielded an IC50 of 682 nM.

Same assay, conditions: human P2X3 receptor, Test Example 1
With `CC1(Cn2c(=O)[nH]/c(=N\c3ccc(OCC4CC4)cc3)n(Cc3ccc(Cl)cc3)c2=O)COC(C)(C)OC1` [Compound I-2615] the IC50 was 7 nM. In the case of `Cn1ccc(Oc2ccc(/N=c3\[nH]c(=O)n(CCCO)c(=O)n3Cc3ccc(Cl)cc3)cc2)n1` [Compound I-2413], the IC50 is reported as 36 nM. Work on `CCc1cc2cc(/N=c3\[nH]c(=O)n(CC(CO)CO)c(=O)n3Cc3ccc(Cl)cc3)ccc2o1` [Compound I-2313] yielded an IC50 of 8 nM. `CCc1oc2ccc(/N=c3\[nH]c(=O)n(CCC(=O)O)c(=O)n3Cc3ccc(Cl)cc3)cc2c1C` [Compound I-1507] gave an IC50 of 15 nM. For `CC1(Cn2c(=O)[nH]/c(=N\c3ccc(Oc4ccon4)cc3)n(Cc3ccc(F)cc3)c2=O)COC(C)(C)OC1` [Compound I-2396], the IC50 was 6 nM. With `CC1(Cn2c(=O)[nH]/c(=N\c3ccc(Oc4ccon4)cc3)n(Cc3ccc(Cl)cc3)c2=O)COC(C)(C)OC1` [Compound I-2630] the IC50 was 3 nM. Work on `CCOCc1ccc(/N=c2\[nH]c(=O)n(C[C@H](C)C(=O)OC)c(=O)n2Cc2ccc(C)cc2)cc1Cl` [Compound I-1498] yielded an IC50 of 22 nM. For `CCOC(=O)CCn1c(=O)[nH]/c(=N\c2ccc(Oc3ncccn3)cc2)n(Cc2ccc(Cl)cc2)c1=O` [Compound I-2550], the IC50 was 4 nM. In the case of `CCc1nc2ccc(/N=c3\[nH]c(=O)n(CCC(=O)O)c(=O)n3Cc3ccc(Cl)cc3)cc2s1` [Compound I-1509], the IC50 is reported as 14 nM.
